Measurements from patent publication US12564588B2, “HECT E3 ubiquitin liagase inhibitors and uses thereof” (Northwestern University, priority 2021, dated 2026).

Legend:
UBE3A [1] = target: T1, UBE3A (Homo sapiens, UniProt Q05086); experiment: in vitro ubiquitination assay (polyubiquitination of S5A); type: biochemical; details: for IC50: S5A polyubiquitination, varying concentrations, estimated / preliminary; for inhibition of UBE3A-mediated polyubiquitination of S5A: compound at 100 μM, western/immunoblot readout
T1 sequence (Q05086 24-875 limits assumed): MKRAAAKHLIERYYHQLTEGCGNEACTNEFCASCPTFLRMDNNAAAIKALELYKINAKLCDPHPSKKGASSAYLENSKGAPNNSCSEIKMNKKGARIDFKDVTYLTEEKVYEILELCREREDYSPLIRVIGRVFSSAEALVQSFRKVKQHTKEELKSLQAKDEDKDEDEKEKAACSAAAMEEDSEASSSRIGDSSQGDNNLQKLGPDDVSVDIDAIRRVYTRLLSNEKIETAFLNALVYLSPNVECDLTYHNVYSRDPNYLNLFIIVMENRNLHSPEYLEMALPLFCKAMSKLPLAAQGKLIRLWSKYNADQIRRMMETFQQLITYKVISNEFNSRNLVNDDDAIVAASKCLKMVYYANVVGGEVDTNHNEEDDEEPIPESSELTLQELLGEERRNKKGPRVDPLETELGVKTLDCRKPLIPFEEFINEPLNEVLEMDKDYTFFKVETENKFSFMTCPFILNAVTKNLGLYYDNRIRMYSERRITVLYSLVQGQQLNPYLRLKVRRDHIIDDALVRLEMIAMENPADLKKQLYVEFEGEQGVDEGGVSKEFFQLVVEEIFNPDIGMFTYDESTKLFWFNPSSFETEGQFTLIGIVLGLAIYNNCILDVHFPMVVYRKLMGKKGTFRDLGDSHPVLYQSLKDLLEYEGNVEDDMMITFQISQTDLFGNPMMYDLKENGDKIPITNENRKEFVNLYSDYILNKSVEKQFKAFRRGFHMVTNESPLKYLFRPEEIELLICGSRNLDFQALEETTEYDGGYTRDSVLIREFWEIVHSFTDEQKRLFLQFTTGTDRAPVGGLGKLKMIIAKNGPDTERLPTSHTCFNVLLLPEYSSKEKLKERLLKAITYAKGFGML
Protocol: FIG. 3A-B. Identification of a potential UBE3A inhibitor compound by in vitro ubiquitination assay. (A). Purified UBA1 (E1), UBE2L3 (E2) and UBE3A (E3) were pre-incubated with each compound at 100 uM, followed by incubation with purified ubiquitin (Ub) and S5A in the presence of ATP. […] NC, negative control without active UBE3A; PC, positive control with active UBE3A but with no small molecule. (B). Structure of #3 compound (Zinc 23375107).
FIG. 4A-B. Screening for compounds that are structurally analogous to #3 compound and could bind to the druggable hotspot of the UBE3A HECT domain. Left panel (A): Purified UBA1 (E1), UBE2L3 (E2) and UBE3A (E3) were pre-incubated with structural analogs of #3 compound at 100 μM, followed by incubation with purified ubiquitin (Ub) and S5A in the presence of ATP.
FIG. 5A-B. Inhibition of the E3 activity of UBE3A by various concentrations of compound #3 and #3-1. The UBE3A activity was assayed by the in vitro ubiquitination assay using S5A as a substrate and the indicated concentrations of compound #3 (A) or #3-1 (B). The polyubiquitinated forms of S5A were quantified by western analysis.
We purchased 35 compounds among the 46 hits identified by the initial virtual screen, and tested their abilities to modulate the ubiquitin ligase activity of UBE3A. The in vitro ubiquitination assay was developed using purified ubiquitin (Ub), Uba1 (E1), UbcH7/UBE2L3 (E2), UBE3A (E3), and S5A/Angiocidin/PSMD4 (substrate), as a modification of our previously reported assay (19). The purchased compounds were dissolved in DMSO to generate a stock solution at 10 mM, and then their effects on UBE3A activity were tested by adding each compound at a final concentration of 100 μM. E1, E2 and E3 enzymes were first pre-incubated at 37° C. for 30 min in a buffer containing MgCl2, ATP and each compound. Subsequently, ubiquitin and S5A were added to the reaction and incubated for 60 more minutes. Samples were then analyzed by SDS-PAGE and immunoblotting, and polyubiquitination of the substrate S5A was determined as specific appearance of forms of anti-S5A immunoreactivity at higher molecular weights.

[2] = target: T2, recombinant UBE3A HECT domain (Homo sapiens, UniProt Q05086); experiment: fluorescence thermal shift analysis (FTS); type: binding; details: 0.5 uM UBE3A, Hepes buffer pH7.5, Tm shifted to lower temperature
T2 construct: a truncated UBE3A protein (residues 495-852 of isoform 1) using E. coli; made in house; host or cells: E. coli
T2 sequence (Q05086 518-875): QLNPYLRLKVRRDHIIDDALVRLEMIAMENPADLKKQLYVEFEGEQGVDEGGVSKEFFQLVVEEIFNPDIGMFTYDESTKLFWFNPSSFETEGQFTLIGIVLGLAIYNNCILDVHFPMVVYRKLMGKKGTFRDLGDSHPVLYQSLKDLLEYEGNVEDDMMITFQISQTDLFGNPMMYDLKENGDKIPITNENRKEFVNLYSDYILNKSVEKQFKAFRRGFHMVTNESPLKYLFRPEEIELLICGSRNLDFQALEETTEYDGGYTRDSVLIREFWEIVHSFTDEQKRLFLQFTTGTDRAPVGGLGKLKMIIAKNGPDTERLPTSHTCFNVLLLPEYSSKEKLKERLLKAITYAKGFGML
Excerpt: FIG. 6A-B. Fluorescence thermal shift analysis of recombinant UBE3A HECT domain with the compound #3-1. (A) Melting curves of recombinant UBE3A HECT domain with multiple concentrations of #3-1 show the melting temperature Tm was shifted to lower temperature progressively with increase in #3-1 concentration. The rise of pre-transition background reading indicates destabilizing of the protein by the small molecule inhibitor, which is consists with the decrease of Tm by the compound. (B) Plot of normalized melting curves with respect to compound concentrations. The compound #3-1 shifts the melting temperature in a significant fashion, indicating specific binding. For example, the Tm is shifted 2.5 degree by 15 uM #3-1 and 5.1 degree by 25 uM #3-1 from the reference value. The test was done with 0.5 uM UBE3A in Hepes buffer (20 mM Hepes, 150 mM NaCl, pH7.5).
To verify the physical interaction between the HECT domain of UBE3A and the identified compounds and also develop a high throughput assay for further screening, we have developed a fluorescence thermal shift analysis (FTS). we have prepared a truncated UBE3A protein (residues 495-852 of isoform 1) using E. coli and performed preliminary FTS test (FIG. 6). […] Small molecule binding affects protein thermal stability, therefore can be detected through a shift in protein's thermal denaturation (melting) temperature (Tm).

HeLa cells = experiment: cytotoxicity in HPV-positive cervical cancer cells (alamarBlue cell viability); type: cell-based; details: Homo sapiens, 72 hrs incubation
Protocol: FIG. 7. Cytotoxicity of the hit compound #3-1 in HPV-positive cervical cancer cells. HPV18-positive human cervical cancer HeLa cells were incubated for 72 hrs with the compound #3-1 at the indicated concentrations, followed by determination of cell viability by the alamarBlue™ HS Cell Viability Reagent (Thermo). Data are shown as means±SEM, and the EC50 is estimated to be 30 μM.
We have recently tested whether the compound #3.1 exert any cytotoxic action in HPV-positive cancer cells. Human cervical carcinoma HeLa cells are a widely used HPV18-positive cell lines. We incubated HeLa cells with the compound #3.1 at various concentrations for 72 hours and determined viability of the cells (FIG. 7). This study has shown that the compound #3.1 exerts cytotoxicity in a dose-dependent manner with EC50 at 30 μM.

UBE3A [3] = target: T1, UBE3A; details: blocks UBE3A oligomerization by substituting Phe727; cited from earlier work

| SMILES | IC50 (UBE3A [1]) [µM] | inhibition of UBE3A-mediated polyubiquitination of S5A (UBE3A [1]) | inhibition of UBE3A-mediated polyubiquitination of S5A (UBE3A [1]; listed as Zinc 23375107) | Tm shift from the reference value ([2]; 15 uM compound) [degree] | Tm shift from the reference value ([2]; 25 uM compound) [degree] | inhibition of UBE3A-mediated polyubiquitination of S5A (UBE3A [1]; listed as #3.1) | EC50 (HeLa cells) [µM] | Ki (UBE3A [3]) [µM] |
| --- | --- | --- | --- | --- | --- | --- | --- | --- |
| COc1ccc(CNCC2CCOCC2)c(OCC(O)CN2CCN(C)CC2)c1 (stereo not shown) [#3, 1-(5-methoxy-2-{[(tetrahydro-2H-pyran-4-ylmethyl)amino]methyl}phenoxy)-3-(4-methyl-1-piperazinyl)-2-propanol] | ~100 | inhibited formation of PolyUb-S5A | significantly inhibits polyubiquitination of S5A | – | – | – | – | – |
| COc1ccc(CNCc2cccc(C)c2)c(OCC(O)CN2CCN(C)CC2)c1 (stereo not shown) [#3-1, 1-(5-methoxy-2-{[(3-methylbenzyl)amino]methyl}phenoxy)-3-(4-methyl-1-piperazinyl)-2-propanol] | ~10 | capable of inhibiting the UBE3A-mediated polyubiquitination of S5A substrate | – | 2.5 | 5.1 | inhibited formation of PolyUb-S5A | 30 | – |
| CC(=O)N[C@@H](Cc1ccccc1)C(=O)O [N-acetyl phenylalanine] | – | – | – | – | – | – | – | 12000 |
